Data as given in patent publication US20240400546A1, “COMPOUNDS AND USES THEREOF” (JANSSEN PHARMACEUTICA NV, priority 2016, published 2024).

Target: T1, SCD1 (Homo sapiens, UniProt O00767)
T1 construct: host or cells: S. cerevisiae ole1Δ strain, plasmid pRS316 with TDH3 promoter and CYC1 terminator
T1 sequence (O00767 1-359): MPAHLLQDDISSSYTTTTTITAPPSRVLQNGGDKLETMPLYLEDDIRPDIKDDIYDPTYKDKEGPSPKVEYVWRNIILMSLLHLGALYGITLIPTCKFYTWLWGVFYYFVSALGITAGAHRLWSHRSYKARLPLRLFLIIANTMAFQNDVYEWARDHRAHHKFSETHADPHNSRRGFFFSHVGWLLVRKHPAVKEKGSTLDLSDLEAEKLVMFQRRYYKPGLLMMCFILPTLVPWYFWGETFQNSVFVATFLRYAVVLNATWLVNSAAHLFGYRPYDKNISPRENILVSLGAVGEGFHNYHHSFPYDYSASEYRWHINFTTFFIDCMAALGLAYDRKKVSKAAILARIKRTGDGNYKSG
Assay: Growth inhibition of humanized yeast expressing SCD1 as sole desaturase
Format: cell-based
Conditions: humanized yeast expressing SCD1
Description: Strain ole1Δ (yeast ole1 deletion mutant) was constructed by deleting OLE1 with NAT-MX6 in BY4741, amplifying the deletion cassette from the genomic DNA of the resulting strain with primers flanking the ORF by 1000 bp upstream and downstream, transforming the resulting deletion cassette into W303 pdr1Δ pdr3Δ, and plating transformants on YPD media containing G418 (200 μg/mL) and nourseothricin (100 μg/mL) with 0.01% TWEEN®-20 and 0.5 mM oleic and palmitoleic acids.
The coding sequence of yeast OLE1 was also cloned into this plasmid). These clones were then transformed into the ole1Δ strain and plated on CSM-Ura media (CSM lacking uracil) with 2% glucose (w/v) and independent colonies were isolated and amplified.
All compound profiling experiments were performed using the same basic protocol. Different genetic backgrounds (e.g., gene deletions) or conditions (e.g., addition of oleic and palmitoleic acid) were replaced as indicated below.
Yeast were cultured using standard techniques in complete synthetic media (CSM) and yeast nitrogen base supplemented with 2% (w/v) carbon source (glucose, raffinose, or galactose) to regulate the expression of the toxic disease protein. An initial starter culture was inoculated in 3 mL CSM-Glucose media and incubated overnight in a 30° C. shaker incubator (225 rpm). Saturated morning cultures were then diluted 1:20 in fresh CSM-Raffinose media and grown for 6 h to an OD600 (optical density) of ˜0.4-0.8 at 30° C. with shaking.
Compound administration was performed in two separate steps. First, 15 μL of CSM-Galactose (induces expression of toxic protein) was dispensed into clear 384 well assay plates using a MULTIDROP™ Combi reagent dispenser. […] The cultures described above were then diluted to a 2× concentration (0.03 and 0.08 for alpha-synuclein and ApoE, final OD600 of 0.015 and 0.04) in CSM-Galactose. For wild-type and Ole1/SCD1/SCD5 plasmid-containing strains, the 2× cell density was 0.02. […] For 96-well assays (FIGS. 1A and 1B), compound dilutions in DMSO were generated in 96 well plates and 1 μL was manually pipetted into 96 well clear bottom assay plates.
For experiments using a plasmid-borne copy of Ole1, SCD1, or SCD5 (FIGS. 3B, 6, and 7), media lacking uracil (SX-Ura, where X is glucose, raffinose, or galactose), was used for all steps of the compound profiling protocol to ensure its maintenance throughout the assay.
After yeast delivery, assay plates were incubated under humidified conditions at 30° C. for 24 to 40 h. ApoE4 rescue experiments were stopped at 24 h, aSyn experiments at 40 h, Ole1 at 24 h, and SCD1/SCD5 at 40 h. The growth of yeast was monitored by reading the OD600 of each well using a microplate reader (Perkin Elmer EnVision™).

| Structure (SMILES) | IC50 [µM] |
| --- | --- |
| Cc1ccc(-c2nc(C3CCN(C(=O)C4CC(=O)N(c5ccc(C)c(C)c5)C4)CC3)no2)cc1 (stereo not drawn) [Compound 50] | 41 |
| Cn1c(=O)n(C)c2cc(-c3noc(C4CCN(C(=O)[C@@H](CO)NC(=O)c5ccccc5)CC4)n3)ccc21 [Compound 214] | 41 |
| CC(C)n1ncc2cc(-c3noc(C4CCN(C(=O)CNC(=O)c5ccccc5)CC4)n3)ccc21 [Compound 228] | 41 |

Same assay, conditions: humanized yeast expressing human SCD1

| Structure (SMILES) | IC50 [µM] |
| --- | --- |
| Cc1nn(C)c2cc(-c3noc(N4CCN(C(=O)[C@H]5CC(=O)N(c6ccccc6)C5)CC4)n3)cnc12 [Compound 246] | > 45 |
| N#Cc1ccc(-c2noc(C3CCN(C(=O)[C@H]4CC(=O)N(c5ccccc5)C4)CC3)n2)s1 [Compound 247] | > 45 |
| O=C([C@H]1CC(=O)N(c2ccccc2)C1)N1CCC(c2nc(-c3ccc(Br)s3)no2)CC1 [Compound 248] | > 45 |
| COc1cc(-c2noc(C3CCN(C(=O)CNC(=O)c4ccccc4)CC3)n2)ccc1OC1CC1 [Compound 249] | > 45 |
| Cc1nn(C)c2cc(-c3nsc(C4CCN(C(=O)CNC(=O)c5ccccc5)CC4)n3)ccc12 [Compound 250] | > 45 |
| CNC(=O)c1ccc(-c2noc(C3CCN(C(=O)[C@H]4CC(=O)N(c5ccccc5)C4)CC3)n2)cn1 [Compound 252] | > 45 |
| COc1cc(-c2noc(C3CCN(C(=O)CNC(=O)c4ccccc4)CC3)n2)ccc1OC(F)(F)F [Compound 253] | > 45 |
| Cn1c(=O)n(C)c2cc(-c3noc(C4CCN(C(=O)[C@H]5CC(=O)N(c6ccccn6)C5)CC4)n3)ccc21 [Compound 256] | > 45 |
| Cc1nn(C)c2cc(-c3noc(N4CCN(C(=O)c5ccccc5)CC4)n3)ccc12 [Compound 261] | > 45 |
| Cc1nn(C)c2cc(-c3noc(N4CCN(C(=O)c5ccccc5Cl)CC4)n3)ccc12 [Compound 262] | > 45 |
| Cc1nn(C)c2cc(-c3noc(C4CCN(C(=O)CC(C)(C)C)CC4)n3)ccc12 [Compound 263] | > 45 |
| Cc1nn(C)c2cc(-c3noc(C4CCN(C(=O)COc5ccccc5)CC4)n3)ccc12 [Compound 266] | > 45 |
| Cc1nn(C)c2cc(-c3noc(C4CCN(C(=O)CNC(=O)c5ccc(Cl)cc5)CC4)n3)ccc12 [Compound 269] | > 45 |
| Cc1nn(C)c2cc(-c3noc(N4CCN(C(=O)c5cccc(F)c5)CC4)n3)ccc12 [Compound 270] | > 45 |
| Cc1nn(C)c2cc(-c3noc(C4CCN(C(=O)CNC(=O)c5ccccc5C(F)(F)F)CC4)n3)ccc12 [Compound 271] | > 45 |
| Cc1nn(C)c2cc(-c3noc(C4CCN(C(=O)Oc5ccccc5)CC4)n3)ccc12 [Compound 272] | > 45 |
| COC(=O)N1CCC(c2nc(-c3ccc4c(C)nn(C)c4c3)no2)CC1 [Compound 273] | > 45 |
| COc1ccc(-c2noc(C3CCN(C(=O)CNC(=O)c4ccccc4)CC3)n2)cc1OC(C)C [Compound 274] | > 45 |
| CC(C)n1cc2ccc(-c3noc(C4CCN(C(=O)OC(C)(C)C)CC4)n3)cc2n1 [Compound 277] | > 45 |
| Cc1nn(C)c2cc(-c3noc(N4CCN(C(=O)c5cc(F)ccc5Cl)CC4)n3)ccc12 [Compound 278] | > 45 |
| Cc1nn(C)c2cc(-c3noc(C4CCN(S(=O)(=O)C(C)C)CC4)n3)ccc12 [Compound 279] | > 45 |
| Cc1nn(C)c2cc(-c3noc(C4CCN(C(=O)c5ccccc5)CC4)n3)ccc12 [Compound 280] | > 45 |
| Cc1nn(C)c2cc(-c3noc(C4CCN(C(=O)NC(C)(C)C)CC4)n3)ccc12 [Compound 282] | > 45 |
| Cc1nn(C)c2cc(-c3noc(C4CCN(C(=O)c5cccc(F)c5)CC4)n3)ccc12 [Compound 284] | > 45 |
| CC(C)c1ccc(C(=O)N2CCC(c3nc(C(=O)Nc4cnn(C)c4)no3)CC2)cc1 [Compound 285] | > 45 |
| Cc1nn(C2CC2)c2cc(-c3noc(C4CCN(C(=O)CNC(=O)c5ccccc5)CC4)n3)ccc12 [Compound 286] | > 45 |
| CC(C)c1ccc(C(=O)N2CCC(c3nc(C(=O)Nc4ccnn4C)no3)CC2)cc1 [Compound 287] | > 45 |
